Test results as given in patent US11414416B1, “Compounds and uses thereof” (Foghorn Therapeutics Inc., priority 2019, dated 2022).

What was measured:
SYO1 cells [1] = test: Cell cycle analysis, Click-iT Plus EdU Flow Cytometry Assay; format: cell-based; settings: SYO1, 200 nM or 1 μM, 8 or 13 days, compared to DMSO and lenalidomide
Experimental: (§1) Procedure: SYO1 cells were treated for 8 or 13 days with DMSO, a BRD9 degrader (Compound 1) at 200 nM or 1 μM, or an E3 ligase binder (lenalidomide) at 200 nM. Compounds were refreshed every 5 days. Cell cycle analysis was performed using the Click-iT™ Plus EdU Flow Cytometry Assay (Invitrogen). The apoptosis assay was performed using the Annexin V-FITC Apoptosis Detection Kit (Sigma A9210). Assays were performed according to the manufacturer's protocol.

[2] = tested on: synovial sarcoma cell lines (SYO1, HS-SY-II, and ASKA); test: Growth of synovial sarcoma cell lines, crystal violet day 14 (Example 4); format: cell-based; settings: for inhibition of growth of synovial sarcoma cell lines: SYO1, HS-SY-II, ASKA, treated daily, day 14, FIG. 8
Experimental: (§2) Procedure: Cells were seeded into 6-well or 12-well plates and were treated daily with a BRD9 degrader (Compound 1), a bromo-domain BRD9 binder (Compound 2), E3 ligase binder (lenalidomide), DMSO, or staurosporin (positive control for cell killing), at indicated concentrations. The number of cells was optimized for each cell line. Growth media was refreshed every 5 days. By day 14, medium was removed, cells were washed with PBS, and stained using 500 μL of 0.005% (w/v) crystal violet solution in 25% (v/v) methanol for at least 1 hour at room temperature. Subsequently plates were scanned on an Odyssey CLx Imaging system.

[3] = tested on: non-synovial control cancer cell lines (293T, A549, G401); test: Growth of non-synovial control cancer cell lines (Example 3); format: cell-based; settings: FIGS. 5-7
Experimental: (§3) Cells were treated with DMSO or the BRD9 degrader, Compound 1, at indicated concentrations, and proliferation was monitored from day 7 to day 14 by measuring confluency over time using an IncuCyte live cell analysis system (FIG. 5). Growth medium and compounds were refreshed every 3-4 days.
(§4) Cells were seeded into 12-well plates and treated with DMSO, 1 μM BRD9 inhibitor, Compound 2 (also known as BI-7273, see Martin et al, J Med Chem. 59(10):4462-4475 (2016); see structure of Compound 2 below), or 1 μM BRD9 degrader, Compound 1.
(§5) The number of cells was optimized for each cell line. Growth medium and compounds were refreshed every 3-5 days. SYO1, Yamato, A549, 293T and HS-SY-II cells were fixed and stained at day 11. ASKA cells were fixed and stained at day 23. Staining was done by incubation with crystal violet solution (0.5 g Crystal Violet, 27 ml 37% Formaldehyde, 100 mL 10×PBS, 10 mL Methanol, 863 dH20 to 1 L) for 30 min followed by 3× washes with water and drying the plates for at least 24 h at room temperature. Subsequently plates were scanned on an Odyssey CLx Imaging system (FIG. 6).
(§6) Cells were seeded into 96-well ultra low cluster plate (Costar, #7007) in 200 μL complete media and treated at day 2 with DMSO, Staurosporin, or BRD9 degarder, Compound 1, at indicated doses (FIG. 7). Media and compounds were changed every 5 d and cell colonies were imaged at day 14.

[4] = tested on: synovial sarcoma cell lines (SYO1, Yamato, HS-SY-II, and ASKA); test: Growth of synovial sarcoma cell lines (confluency, crystal violet, colonies; Example 3); format: cell-based; settings: FIGS. 5-7, 1 μM in crystal violet assay
Experimental: as §3, §4, §5, §6

[5] = tested on: non-synovial control cancer cell lines (RD, HCT116, and Calu6); test: Growth of non-synovial control cancer cell lines, crystal violet day 14 (Example 4); format: cell-based; settings: treated daily, day 14, FIG. 9
Experimental: as §2

SYO1 cells [6] = test: Apoptosis assay, Annexin V-FITC Apoptosis Detection Kit; format: cell-based; settings: SYO1, 200 nM or 1 μM, 8 days, compared to DMSO controls
Experimental: as §1

BRD9 bromodomain = BRD9 bromodomain (Homo sapiens (Human), UniProt Q9H8M2); test: BRD9 bromodomain TR-FRET competition binding assay; settings: Table 4; competition with biotinylated ligand, 3 nM Flag-BRD9, 90 minutes
How it was run: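 TEV-cleaved Flag-BRD9 (P133-K239, 3 nM) competed against 3.75 nM biotinylated ligand, with 7.5 nM APC-streptavidin and 0.2 nM Eu-W1024 anti-FLAG, in HEPES pH 7.4, NaCl, TCEP, Tween-20, BSA. Compounds were serially diluted 3-fold; after 90 min at room temperature the 665/615 nm emission ratio was read.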

[7] = target: Nanoluciferase-BRD9 fusion protein (Homo sapiens (Human), UniProt Q9H8M2); test: SYO1 BRD9 NanoLuc degradation assay; format: cell-based; settings: Table 5A, SYO-1 cells expressing 3×FLAG-NLuc-BRD9, 6 hours; for DC50: read-out: SYO1 BRD9-NanoLuc degradation IC50
How it was run: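 Degradation was read as loss of nanoluciferase signal (Nano-Glo) after 6 h compound exposure in a stable SYO-1 line carrying 3×FLAG-NLuc-BRD9 (8000 cells/well). Normalised between DMSO (high) and a 1 μM known BRD9 degrader (low).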

Sequence of Nanoluciferase-BRD9 fusion protein (Q9H8M2 whole entry, the tested form may be a part): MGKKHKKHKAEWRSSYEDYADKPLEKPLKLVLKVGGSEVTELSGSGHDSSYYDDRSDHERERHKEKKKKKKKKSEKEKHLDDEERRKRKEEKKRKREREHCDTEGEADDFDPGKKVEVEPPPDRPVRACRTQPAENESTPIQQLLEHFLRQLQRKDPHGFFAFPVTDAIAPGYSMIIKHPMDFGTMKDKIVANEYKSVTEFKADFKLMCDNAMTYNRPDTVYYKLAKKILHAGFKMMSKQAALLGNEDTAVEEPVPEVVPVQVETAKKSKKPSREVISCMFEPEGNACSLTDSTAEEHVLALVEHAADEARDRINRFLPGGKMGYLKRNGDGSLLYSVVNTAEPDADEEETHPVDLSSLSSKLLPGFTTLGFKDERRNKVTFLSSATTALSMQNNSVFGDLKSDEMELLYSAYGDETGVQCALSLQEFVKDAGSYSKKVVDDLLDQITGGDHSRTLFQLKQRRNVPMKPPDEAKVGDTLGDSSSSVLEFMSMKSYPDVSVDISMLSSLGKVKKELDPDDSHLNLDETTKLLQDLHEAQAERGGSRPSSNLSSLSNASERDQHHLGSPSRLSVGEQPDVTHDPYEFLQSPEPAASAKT
Sequence of BRD9 bromodomain (Q9H8M2 133-239): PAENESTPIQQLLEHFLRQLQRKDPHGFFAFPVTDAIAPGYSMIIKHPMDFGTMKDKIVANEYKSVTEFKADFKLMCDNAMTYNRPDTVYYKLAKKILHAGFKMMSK

IC50 (BRD9 bromodomain) | DC50 [7] | IC50 [7] | Compound | also measured
 |  |  | COc1cc(-c2cn(C)c(=O)c3cnccc23)cc(OC)c1CN(C)CC(=O)NCCOCCOCCNc1cccc2c1C(=O)N(C1CCC(=O)NC1=O)C2=O (stereo not shown) [Compound 1] | numbers of cells in the S-phase of the cell cycle (SYO1 cells [1]): reduced numbers of cells in the S-phase; inhibition of growth of synovial sarcoma cell lines [2]: inhibition of the growth of the cells; overall comparison of growth inhibition in synovial cell lines ([2]; compared with Compound 2 and lenalidomide): most significant growth inhibition; inhibition of growth of non-synovial control cancer cell lines [3]: does not result in inhibition of the growth; inhibition of growth of synovial sarcoma cell lines [4]: inhibition of the growth of the cells; inhibition of growth of non-synovial control cancer cell lines [5]: did not result in inhibition of the growth; numbers of early- and late-apoptotic cells (SYO1 cells [6]): increased numbers of early- and late-apoptotic cells
 |  |  | COc1cc(-c2cn(C)c(=O)c3cnccc23)cc(OC)c1CN(C)C [Compound 2] | inhibition of growth of synovial sarcoma cell lines [2]: inhibition of the growth of the cells; inhibition of growth of non-synovial control cancer cell lines [3]: does not result in inhibition of the growth; inhibition of growth of synovial sarcoma cell lines [4]: inhibition of the growth of the cells; inhibition of growth of non-synovial control cancer cell lines [5]: did not result in inhibition of the growth
< 10 nM | 10 to 100 nM |  | COc1cc(-c2cn(C)c(=O)c3cnccc23)cc(OC)c1CN(C)CC1CC2(C1)CN(C(=O)CCOCCOc1cccc3c1C(=O)N(C1CCC(=O)NC1=O)C3=O)C2 (stereo not shown) [Compound D164] | 
10 to 100 nM |  | 10 to 100 nM | COc1cc(-c2cn(C)c(=O)c3cnccc23)cc(OC)c1CN(C)CC1CC2(CCN(C(=O)CCOCCOc3cccc4c3C(=O)N(C3CCC(=O)NC3=O)C4=O)CC2)C1 (stereo not shown) [Compound D165] | 
< 10 nM | 10 to 100 nM |  | COc1cc(-c2cn(C)c(=O)c3cnccc23)cc(OC)c1CN(C)CC1CC2CN(C(=O)CCOCCOc3cccc4c3C(=O)N(C3CCC(=O)NC3=O)C4=O)C[C@@H]2C1 (stereo partly shown) [Compound D166] | 
< 10 nM |  | < 10 nM | COc1cc(-c2cn(C)c(=O)c3cnccc23)cc(OC)c1CN(C)CC1CC2(CCN(C(=O)CCOCCOc3ccc4c(c3)C(=O)N(C3CCC(=O)NC3=O)C4=O)CC2)O1 (stereo not shown) [Compound D167] | 
< 10 nM | 10 to 100 nM |  | COc1cc(-c2cn(C)c(=O)c3cnccc23)cc(OC)c1CN(C)C1CC2CN(C(=O)CCOCCOc3ccc4c(c3)C(=O)N(C3CCC(=O)NC3=O)C4=O)CC2C1 (stereo not shown) [Compound D169] | 
10 to 100 nM |  | < 10 nM | COc1cc(-c2cn(C)c(=O)c3cnccc23)cc(OC)c1CN(C)C1CCC2CN(C(=O)CCOCCOc3ccc4c(c3)C(=O)N(C3CCC(=O)NC3=O)C4=O)CC21 (stereo not shown) [Compound D170] | 
10 to 100 nM |  | < 10 nM | COc1cc(-c2cn(C)c(=O)c3cnccc23)cc(OC)c1CN(C)C1CC2CC1CN2C(=O)CCOCCOc1ccc2c(c1)C(=O)N(C1CCC(=O)NC1=O)C2=O (stereo not shown) [Compound D171] | 
< 10 nM | 10 to 100 nM |  | COc1cc(-c2cn(C)c(=O)c3cnccc23)cc(OC)c1CN(C)CC1CC12CCN(C(=O)CCOCCOc1ccc3c(c1)C(=O)N(C1CCC(=O)NC1=O)C3=O)CC2 (stereo not shown) [Compound D172] | 
10 to 100 nM |  | < 10 nM | COc1cc(-c2cn(C)c(=O)c3cnccc23)cc(OC)c1CN(C)C1CCC12CCN(C(=O)CCOCCOc1ccc3c(c1)C(=O)N(C1CCC(=O)NC1=O)C3=O)CC2 (stereo not shown) [Compound D173] | 
10 to 100 nM |  | 100 to 1000 nM | COc1cc(-c2cn(C)c(=O)c3cnccc23)cc(OC)c1CN(C)CC1CC2(C1)CN(C(=O)CCOCCOc1ccc3c(c1)C(=O)N(C1CCC(=O)NC1=O)C3=O)C2 (stereo not shown) [Compound D174] | 
10 to 100 nM |  | 10 to 100 nM | COc1cc(-c2cn(C)c(=O)c3cnccc23)cc(OC)c1CN(C)CC1CC2(CCN(C(=O)CCOCCOc3ccc4c(c3)C(=O)N(C3CCC(=O)NC3=O)C4=O)CC2)C1 (stereo not shown) [Compound D175] | 
< 10 nM |  | < 10 nM | COc1cc(-c2cn(C)c(=O)c3cnccc23)cc(OC)c1CN(C)CC1CC2CN(C(=O)CCOCCOc3ccc4c(c3)C(=O)N(C3CCC(=O)NC3=O)C4=O)C[C@@H]2C1 (stereo partly shown) [Compound D176] | 
< 10 nM | 10 to 100 nM |  | COc1cc(-c2cn(C)c(=O)c3cnccc23)cc(OC)c1CN(C)CC1CC2CN(C(=O)CCOCCOc3cccc4c3C(=O)N(C3CCC(=O)NC3=O)C4=O)C[C@H]2C1 (stereo partly shown) [Compound D177] | 
